According to the Kinase Knowledgebase extract (Sharma et al. 2016):

What was measured:
EGFR (mouse) [1] = target: EGFR (mouse) (UniProt P00533); conditions: nih3t3/neu
EGFR (mouse) [2] = target: EGFR (mouse) (UniProt P00533); conditions: nih3t3
EGFR (mouse) [3] = target: EGFR (mouse) (UniProt P00533); conditions: nih3t3/her14

COc1cc2ncnc(Nc3cccc(Cl)c3)c2cc1OC.Cn1nnc2c(C(N)=O)ncn2c1=O
IC50 (EGFR (mouse) [1]): 1.1 µM
IC50 (EGFR (mouse) [2]): 39.4 µM
IC50 (EGFR (mouse) [3]): 6.2 µM

CNN=Nc1ccc2ncnc(Nc3cccc(C)c3)c2c1
IC50 (EGFR (mouse) [1]): 16.5 µM
IC50 (EGFR (mouse) [3]): 28.9 µM

CN(CO)N=Nc1ccc2ncnc(Nc3cccc(Br)c3)c2c1
IC50 (EGFR (mouse) [1]): 0.09 µM
IC50 (EGFR (mouse) [3]): 2.1 µM

CC(=O)OCN(C)N=Nc1ccc2ncnc(Nc3cccc(Br)c3)c2c1
IC50 (EGFR (mouse) [1]): 0.21 µM
IC50 (EGFR (mouse) [3]): 3.4 µM

COc1cc2ncnc(Nc3cccc(Cl)c3)c2cc1OC
IC50 (EGFR (mouse) [1]): 4 µM
IC50 (EGFR (mouse) [3]): 9.8 µM

CC(=O)N(C)N=Nc1ccc2ncnc(Nc3cccc(C)c3)c2c1
IC50 (EGFR (mouse) [1]): 60.6 µM
IC50 (EGFR (mouse) [3]): 149 µM

CNN=Nc1ccc2ncnc(Nc3cccc(Br)c3)c2c1
IC50 (EGFR (mouse) [1]): 0.09 µM
IC50 (EGFR (mouse) [3]): 8.8 µM

Cn1nnc2c(C(N)=O)ncn2c1=O
IC50 (EGFR (mouse) [1]): 210 µM
IC50 (EGFR (mouse) [2]): 214 µM
IC50 (EGFR (mouse) [3]): 207 µM

Nc1ccc2ncnc(Nc3cccc(Br)c3)c2c1
IC50 (EGFR (mouse) [1]): 0.42 µM
IC50 (EGFR (mouse) [3]): 10.4 µM
